Reference: publication PMC9728974 (Science Advances, 2022)
pKd: −log10 of the molar value. One block for each compound: values may come before it.

Tests used:
[1] = biological target: PmiR (PA0797), wild type (Pseudomonas aeruginosa PAO1); experiment: SEC
PmiR = biological target: T1, PmiR (Pseudomonas aeruginosa, UniProt Q9I5E1); experiment: ITC; type: binding
T1 sequence (Q9I5E1 1-240): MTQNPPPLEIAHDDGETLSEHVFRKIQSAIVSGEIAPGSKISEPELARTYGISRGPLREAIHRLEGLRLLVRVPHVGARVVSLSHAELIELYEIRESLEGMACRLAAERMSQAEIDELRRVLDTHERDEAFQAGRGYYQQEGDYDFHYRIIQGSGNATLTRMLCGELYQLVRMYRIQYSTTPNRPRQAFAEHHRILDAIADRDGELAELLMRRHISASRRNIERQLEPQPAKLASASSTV

[2] = biological target: T2, truncated PmiR protein (amino acids 15 to 232) (Pseudomonas aeruginosa, UniProt Q9I5E1); experiment: ITC; type: binding
T2 sequence (Q9I5E1 15-232): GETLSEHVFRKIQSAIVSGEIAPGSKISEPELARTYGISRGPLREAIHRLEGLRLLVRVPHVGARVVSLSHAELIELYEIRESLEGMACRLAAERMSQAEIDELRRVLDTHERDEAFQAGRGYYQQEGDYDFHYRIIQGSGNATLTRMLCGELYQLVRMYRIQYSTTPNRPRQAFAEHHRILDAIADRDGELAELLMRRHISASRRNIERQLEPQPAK

PrpB = biological target: T3, PrpB (Pseudomonas aeruginosa, UniProt Q9I5E2); experiment: HPLC-UV, A214; type: biochemical; conditions: 1.0 mM; 1 mM tris-HCl pH 7.5
T3 sequence (Q9I5E2 1-298): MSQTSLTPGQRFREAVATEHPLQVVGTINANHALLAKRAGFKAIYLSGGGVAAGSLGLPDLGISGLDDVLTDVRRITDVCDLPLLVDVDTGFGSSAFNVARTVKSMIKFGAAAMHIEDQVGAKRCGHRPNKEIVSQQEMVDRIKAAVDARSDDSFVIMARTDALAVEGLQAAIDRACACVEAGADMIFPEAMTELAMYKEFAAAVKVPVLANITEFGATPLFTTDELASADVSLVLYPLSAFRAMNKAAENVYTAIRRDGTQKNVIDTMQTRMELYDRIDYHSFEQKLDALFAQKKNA

Compound: PmiR (PA0797), wild type (natural protein)
- stoichiometry N [1]: 2

- pKd (PmiR): 4.19
Compound: O=C(O)C[C@H](C(=O)O)[C@@H](O)C(=O)O [isocitrate]

- pKd [2]: 4.20
- pKd (PmiR): 4.66
Compound: C[C@](O)(C(=O)O)[C@H](CC(=O)O)C(=O)O (racemic) [MIC]

Compound: CC(=O)C(=O)O [pyruvate]
- HPLC-UV, A214 (PrpB): PrpB, methylisocitrate lyase, was the last but critical enzyme to convert MIC to succinate and pyruvate
